Where two headings read alike, the source gives them in different places.
How the values were obtained:
[1] = biological target: T1, recombinant human Lp-PLA2 (Homo sapiens, UniProt Q13093); assay: Recombinant human Lp-PLA2 assay (rhLp-PLA2, PED6 assay); format: biochemical
T1 sequence (Q13093 22-441): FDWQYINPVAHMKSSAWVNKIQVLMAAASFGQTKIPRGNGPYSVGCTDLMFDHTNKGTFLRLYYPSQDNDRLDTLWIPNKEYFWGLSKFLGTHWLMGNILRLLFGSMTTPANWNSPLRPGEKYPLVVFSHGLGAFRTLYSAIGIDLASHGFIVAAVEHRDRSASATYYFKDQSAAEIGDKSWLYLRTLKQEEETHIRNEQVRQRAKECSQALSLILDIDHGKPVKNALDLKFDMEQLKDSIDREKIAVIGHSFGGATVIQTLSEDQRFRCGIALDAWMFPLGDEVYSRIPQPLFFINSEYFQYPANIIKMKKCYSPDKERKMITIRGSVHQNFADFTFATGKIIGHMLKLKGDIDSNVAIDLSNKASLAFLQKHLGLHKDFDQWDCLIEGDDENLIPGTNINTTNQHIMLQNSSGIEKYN
Excerpt: (1) Recombinant Human Lp-PLA2 Assay (rhLp-PLA2) (Also Referred to as “PED6” Assay)
N-((6-(2,4-dinitrophenyl)amino)-hexanoyl)-2-(4,4-difluoro-5,7-dimethyl-4-bora-3a,4a-diaza-s-indacene-3-pentanoyl)-1-hexadecanoyl-sn-glycero-3-phosphoethanolamine, triethylammonium salt (PED6) is a commercially available fluorescently-labeled phospholipid, which is commercially available from Invitrogene and Molecular Probes. There is a quenching […] and a Bodipy fluorescein (FL) group in the sn2 position. Upon cleavage with Lp-PLA2, the Bodipy FL group is liberated and then may result in an increase in fluorescence. Inhibitors of Lp-PLA2 therefore prevent this cleavage and no fluorescent increase is observed.
The PED6 assay was run as an unquenched 10 μL assay. The source plate containing the compounds to be tested was prepared by making 1:3 (by volume) serial dilution of the compounds within DMSO on 384-well microplate. Then, 0.01 μL of the compounds on compound source plate were transferred into 384 well Greiner 784076 (black) plates using ECHO liquid dispenser. 5 μL of recombinant human Lp-PLA2 enzyme (4 nM (or […]) rhLp-PLA2 in assay buffer of 50 mM HEPES, pH 7.4, 150 mM NaCl, 1 mM CHAPS) was added to each well of the plate. Plates were centrifuged for 10 sec at 500 rpm. After 30 minutes preincubation, 5 μL of substrate ([…] PED6 [from 5 mM DMSO stock] in assay buffer of 50 mM HEPES, pH 7.4, 150 mM NaCl, 1 mM CHAPS) was added to 384 well Greiner 784076 (black) plates. Plates were centrifuged for 10 sec at 500 rpm. The plate was covered to protect it from light and incubated for 20 min at room temperature. The plates were read for fluorescence intensity at ex: 480/em: 540 using ViewLux microplate imager for Envision spectrofluoroimeters pIC50 data, curve and QC analysis was conducted by using XL fit module in Excel.

[2] = biological target: T2, Lp-PLA2 in human plasma (Homo sapiens, UniProt Q13093); assay: Lp-PLA2 human plasma assay (Thio-PAF assay); format: biochemical; details: pooled human plasma; lower bounds; read-out: pIC50 values in the thio-PAF assay (converted)
T2 construct: from tissue; host or cells: pooled human plasma
T2 sequence (Q13093 22-441): T1 sequence (Q13093 22-441)
Excerpt: (3) Lipoprotein-Associated Phospholipase A2 (Lp-PLA2) Human Plasma Assay (Also Referred to as “Thio-PAF assay”)
The human plasma assay utilizes a thioester analog of PAF (phosphatidylcholine), where hydrolysis yields to the formation of a phospholipid containing a free thiol group. The amount of thiol is quantitated continuously by reacting with CPM (7-diethylamino-3-(4′-maleimidylphenyl)-4-methylcoumarin), a maleimide which increases in fluoresence after Michael addition of thiols. This assay may detect the activity of Lp-PLA2 in human plasma, as determined by specific inhibition by Lp-PLA2 inhibitors.
The thio-PAF assay was run as a quenched 15 μL assay. Compounds source plate was prepared by making 1:3 (by volume) serial dilution of the compounds into pure DMSO on 384-well microplate. 0.01 μL of compounds on compound source plate were transferred to 384 well Greiner 784076 (black) low-volume plates by ECHO liquid dispenser. 8 μL pooled human plasma, which was previously aliquoted and frozen, was added. Plates were centrifuged for 10 sec at 500 rpm. After 30 minutes preincubation, 2 μL of substrate solution comprising 2.5 mM 2-thio-PAF [from ethanol stock], 32 μM CPM [from a DMSO stock] and 3.2 mM NEM (N-ethylmaleimide) [made fresh daily in DMSO] in assay buffer of 50 mM HEPES, pH 7.4, 150 mM NaCl, 1 mM CHAPS was added to 384 well Greiner 784076 (black) low-volume plates by BRAVO liquid handling station. After 2 mins, reaction was quenched with 5 μL of 5% aqueous trifluoroacetic acid (TFA). Plates were covered to protect from light and incubated for 40 min at room temperature. Plates were read at ex: 380/em: 485 using-Envision microplate reader. PIC50 data, curve and QC analysis were conducted by using XLFit module in Excel.

[3] = lower bounds, read-out: pIC50 values in the PED6 assay (converted)
[4] = read-out: rhLp-PLA2 (PED6 assay) (pIC50) (converted)

| SMILES | IC50 [1, 3] | IC50 [2] | IC50 [1, 4] |
| --- | --- | --- | --- |
| CC1Cn2c(cc(OCc3ccc(Oc4ccnc(C(F)(F)F)c4)c(F)c3)nc2=O)N1C (stereo not shown) [Example E31, 7-((3-fluoro-4-((2-(trifluoromethyl)pyridin-4-yl)oxy)benzyl)oxy)-1,2-dimethyl-2,3-dihydroimidazo[1,2-c]pyrimidin-5(1H)-one] | ≤ 1 nM | ≤ 100 nM | – |
| CC1(C)Cn2c(cc(OCc3ccc(Oc4ccc(C(F)(F)F)nc4)c(F)c3)nc2=O)N1 [Example E37, 7-((3-fluoro-4-((6-(trifluoromethyl)pyridin-3-yl)oxy)benzyl)oxy)-2,2-dimethyl-2,3-dihydroimidazo[1,2-c]pyrimidin-5(1H)-one] | ≤ 1 nM | ≤ 100 nM | – |
| CC1(C)Cn2c(cc(OCc3ccc(Oc4ccnc(C(F)(F)F)c4)c(F)c3)nc2=O)N1 [Example E38, 7-((3-fluoro-4-((2-(trifluoromethyl)pyridin-4-yl)oxy)benzyl)oxy)-2,2-dimethyl-2,3-dihydroimidazo[1,2-c]pyrimidin-5(1H)-one] | ≤ 1 nM | ≤ 100 nM | – |
| CC1(C)Cn2c(cc(OCc3cc(F)c(Oc4ccc(C(F)(F)F)nc4)c(F)c3)nc2=O)N1 [Example E39, 7-((3,5-difluoro-4-((6-(trifluoromethyl)pyridin-3-yl)oxy)benzyl)oxy)-2,2-dimethyl-2,3-dihydroimidazo[1,2-c]pyrimidin-5(1H)-one] | ≤ 1 nM | ≤ 100 nM | – |
| C[C@H]1Cn2c(cc(OCc3ccc(Oc4cnc(C(F)(F)F)nc4)c(F)c3)nc2=O)N1C [Example E40, (S)-7-((3-fluoro-4-((2-(trifluoromethyl)pyrimidin-5-yl)oxy)benzyl)oxy)-1,2-dimethyl 2,3-dihydroimidazo[1,2-c]pyrimidin-5(1H)-one] | ≤ 10 nM | ≤ 100 nM | – |
| CC1(C)Cn2c(cc(OCc3ccc(Oc4cncc(C(F)(F)F)c4)c(F)c3)nc2=O)N1 [Example E41, 7-((3-fluoro-4-((5-(trifluoromethyl)pyridin-3-yl)oxy)benzyl)oxy)-2,2-dimethyl-2,3-dihydroimidazo[1,2-c]pyrimidin-5(1H)-one] | ≤ 1 nM | ≤ 100 nM | – |
| CN1c2cc(OCc3ccc(F)c(C#N)c3)nc(=O)n2CC1(C)C [Example E42, 2-fluoro-5-(((1,2,2-trimethyl-5-oxo-1,2,3,5-tetrahydroimidazo[1,2-c]pyrimidin-7-yl)oxy)methyl)benzonitrile] | ≤ 1 nM | ≤ 100 nM | 0.316 nM |
| CN1c2cc(OCc3ccc(Oc4cnc(C(F)(F)F)nc4)c(F)c3)nc(=O)n2CC1(C)C [Example E43, 7-((3-fluoro-4-((2-(trifluoromethyl)pyrimidin-5-yl)oxy)benzyl)oxy)-1,2,2-trimethyl-2,3-dihydroimidazo[1,2-c]pyrimidin-5(1H)-one] | ≤ 1 nM | ≤ 100 nM | 0.0501 nM |
| CC1(C)Cn2c(cc(OCc3ccc(Oc4ccc(Cl)nc4)c(F)c3)nc2=O)N1 [Example E44, 7-((4-((6-chloropyridin-3-yl)oxy)-3-fluorobenzyl)oxy)-2,2-dimethyl-2,3-dihydroimidazo[1,2-c]pyrimidin-5(1H)-one] | ≤ 1 nM | ≤ 100 nM | – |
| CC1(C)Cn2c(cc(OCc3cc(F)c(Oc4ccnc(Cl)c4)c(F)c3)nc2=O)N1 [Example E45, 7-((4-((2-chloropyridin-4-yl)oxy)-3,5-difluorobenzyl)oxy)-2,2-dimethyl-2,3-dihydroimidazo[1,2-c]pyrimidin-5(1H)-one] | ≤ 1 nM | ≤ 100 nM | – |
| CC(C)N1c2cc(OCc3cccc(F)c3F)nc(=O)n2CC1(C)C [Example E46, 7-((2,3-difluorobenzyl)oxy)-1-isopropyl-2,2-dimethyl-2,3-dihydroimidazo[1,2-c]pyrimidin5(1H)-one] | ≤ 10 nM | ≤ 100 nM | 3.98 nM |
| C[C@@H]1Cn2c(cc(OCc3cc(F)c(F)c(F)c3)nc2=O)N1C [Example E48, (R)-1,2-dimethyl-7-((3,4,5-trifluorobenzyl)oxy)-2,3-dihydroimidazo[1,2-c]pyrimidin-5(1H)-one] | ≤ 10 nM | ≤ 100 nM | – |
| C[C@H]1Cn2c(cc(OCc3cc(F)c(F)c(F)c3)nc2=O)N1 [Example E49, (S)-2-methyl-7-((3,4,5-trifluorobenzyl)oxy)-2,3-dihydroimidazo[1,2-c]pyrimidin-5(1H)-one] | ≤ 10 nM | ≤ 100 nM | – |
| CC1(C)Cn2c(cc(OCc3cc(F)c(F)c(F)c3)nc2=O)N1 [Example E50, 2,2-dimethyl-7-((3,4,5-trifluorobenzyl)oxy)-2,3-dihydroimidazo[1,2-c]pyrimidin-5(1H)-one] | ≤ 1 nM | ≤ 100 nM | – |
| C[C@@H]1Cn2c(cc(OCc3ccc(Oc4ccnc(C(F)(F)F)c4)c(F)c3)nc2=O)N1C [Example E51, (R)-7-((3-fluoro-4-((2-(trifluoromethyl)pyridin-4-yl)oxy)benzyl)oxy)-1,2-dimethyl-2,3-dihydroimidazo[1,2-c]pyrimidin-5(1H)-one] | ≤ 1 nM | ≤ 100 nM | – |
| C[C@@H]1Cn2c(cc(OCc3ccc(F)c(C#N)c3)nc2=O)N1C [Example E53, (R)-5-(((1,2-dimethyl-5-oxo-1,2,3,5-tetrahydroimidazo[1,2-c]pyrimidin-7-yl)oxy)methyl)-2-fluorobenzonitrile] | ≤ 10 nM | ≤ 100 nM | – |
| C[C@H]1Cn2c(cc(OCc3ccc(Oc4cncc(C(F)(F)F)c4)c(F)c3)nc2=O)N1C [Example E54, (S)-7-((3-fluoro-4-((5-(trifluoromethyl)pyridin-3-yl)oxy)benzyl)oxy)-1,2-dimethyl-2,3-dihydroimidazo[1,2-c]pyrimidin-5(1H)-one] | ≤ 1 nM | ≤ 100 nM | 0.126 nM |
| C[C@H]1Cn2c(cc(OCc3ccc(Oc4cncc(C(F)(F)F)c4)c(C#N)c3)nc2=O)N1C [Example E55, (S)-5-(((1,2-dimethyl-5-oxo-1,2,3,5-tetrahydroimidazo[1,2-c]pyrimidin-7-yl)oxy)methyl)-2-((5-(trifluoromethyl)pyridin-3-yl)oxy)benzonitrile] | ≤ 1 nM | ≤ 100 nM | – |
| C[C@H]1Cn2c(cc(OCc3cc(F)c(Oc4cncc(C(F)(F)F)c4)c(F)c3)nc2=O)N1C [Example E56, (S)-7-((3,5-difluoro-4-((5-(trifluoromethyl)pyridin-3-yl)oxy)benzyl)oxy)-1,2-dimethyl-2,3-dihydroimidazo[1,2-c]pyrimidin-5(1H)-one] | ≤ 1 nM | ≤ 100 nM | 0.1 nM |
| C[C@H]1Cn2c(cc(OCc3cc(F)c(Oc4ccnc(C(F)(F)F)c4)c(F)c3)nc2=O)N1C [Example E58, (S)-7-((3,5-difluoro-4-((2-(trifluoromethyl)pyridin-4-yl)oxy)benzyl)oxy)-1,2-dimethyl-2,3-dihydroimidazo[1,2-c]pyrimidin-5(1H)-one] | ≤ 1 nM | ≤ 100 nM | 0.0631 nM |
